Tests used:
[1] = molecular target: T1, human A1-adenosine receptor (Homo sapiens, UniProt P30542); assay: Radioligand binding with [3H]CCPA on recombinant human A1-adenosine receptors expressed by CHO cells; conditions: read-out: A1 K1, Human
T1 construct: expressed in transfected cells; host or cells: CHO cells
T1 sequence (P30542 1-326): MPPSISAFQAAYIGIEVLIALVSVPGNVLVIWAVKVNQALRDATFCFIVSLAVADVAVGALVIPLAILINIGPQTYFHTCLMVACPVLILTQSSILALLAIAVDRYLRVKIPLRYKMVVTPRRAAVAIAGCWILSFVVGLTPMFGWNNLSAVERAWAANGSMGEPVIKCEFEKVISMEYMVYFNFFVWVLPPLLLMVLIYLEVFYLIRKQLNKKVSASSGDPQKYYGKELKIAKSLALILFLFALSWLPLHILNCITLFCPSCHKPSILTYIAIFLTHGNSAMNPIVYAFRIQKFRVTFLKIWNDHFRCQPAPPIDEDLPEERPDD
From the text: The following selective radioligands are used in the biological tests: • [^3H]CCPA (for A1 ARs) [Klotz et al., Naunyn-Schmiedeberg's Arch. Pharmacol., 340, 679 (1989)] • [^3]MSX-2 (for A2A ARs) [Muiller et al., Eur. J. Pharm. Sci., 10, 259 (2000)] • [^3H]ZM241385 (for A2B ARs_[X.-D. Ji, K. A. Jacobson, Drug Des. Discov., 16, 217 (1999)] • [^3H]PSB-11 (new antagonistic radioligand for human A3 ARs) [M. Dieckmann, M. Thorand, V. Ozola, C. E. Muiller, in Vorbereitung [Preparation] (2001)]. • [^125I]AB-MECA (for rat-A3 ARs) [Olah et al., Mol. Pharmacol., 45, 978 (1994)]. Description of the Assays That are Used for Testing Substances Production of Tissue Preparations Made from Rat Brains
As cell cultures, for example, CHO cells, which express the human A1-adenosine receptor, are used.
The nutrient medium, trypsine and PBS (phosphate-buffered common salt solution) are heated in a water bath to 37° C. The medium is suctioned off from the flask that is approximately 80% to 90% confluently covered with CHO cells. […]
The mixture is incubated for 90 minutes in an oscillating water bath at 23° C. […] The filter plates are conveyed in scintillation vials, doused with 2.5 ml of Ultima Gold Scintillation cocktail and incubated for at least 6 hours before they are measured in a scintillation counter.
The mean value is calculated from three independent experiments. […]

Row | Molecule | melting point | Ki [1]
1 | Cn1nc(-c2nc3ccccc3n3c(Cc4cccs4)nnc23)cc1Cl [Y = C—CH2-(2-Thienyl), R5 = CH3, R6 = Cl, 4-(5-Chloro-1H-1-methyl-pyrazol-3-yl)-1-(2-thienylmethyl)-[1,2,4]triazolo[4,3-a]-quinoxaline] | 205 to 207 °C | 
2 | 4-(chloropyrazolyl)-1-(3-phenylpropyl)-[1,2,4-]triazolo[4,3-a]quinoxaline [Y = C—CH2—CH2—CH2-Ph, R5 = H, R6 = Cl] |  | 2 nM
